3 compounds from US20180163177A1, “SERUM-FREE CULTURE MEDIUM AND METHOD FOR EXPANDING HEMATOPOIETIC STEM CELLS” (HealthBanks Biotech Co. Ltd., priority 2016, published 2018) can be followed below.

The assay deals with CD34+ HSC. As to the kind of experiment: HSC expansion without feeder layer, in SF-UCM or concentrated SF-UCM with supplements, 12-day culture. Type of assay: cell-based. As to conditions: day 12; no feeder layer; SCGM with 6 cytokines and hydrocortisone. The source says: To test potential replacement for the feeder layers, we have tested a serum-free umbilical cord mesenchymal stem cell conditioned medium (SF-UCM) from UC-MSC. The serum-free umbilical cord mesenchymal stem cell conditioned medium is for example produced by the method described above, comprising the steps of: (a) culturing an umbilical cord mesenchymal stem cell in a serum-free cell culture medium (e.g. serum-free SCGM), and (b) isolating the conditioned cell culture medium.
In FIG. 3A and FIG. 3B, the positive control (PC) group is in IMDM as described above. The PC & S1 groups shown in FIG. 3A and 3B are grown as follows: At day 0, CD34+ HSC are thawed and co-cultured with UC-MSC feeder for 12 days with a cell density of 2.5×10^4 cells/ml, using 5% CS (cord serum)/IMDM medium containing the 6 cytokines and hydrocortisone for PC group or using SCGM containing 6 cytokines, hydrocortisone and 4 supplements for S1 group.
The S3-2 group was grown as follows: At day 0, CD34+ HSC are thawed and cultured in a culture medium mixture of 50% (v/v) SF-UCM and 50% (v/v) fresh SCGM containing 6 cytokines, hydrocortisone and 4 supplements with a cell density of 2.5×10^4 cells/ml for 12 days. The 6 cytokines, hydrocortisone and 4 supplements used herein are the same as described in example 2.
During 12-day culture, 50% culture medium is replenished as well as newly prepared UC-MSC feeder every 4 days, and CD34+ cells are maintained at a cell density of 2.5-5×10^4 cells/ml. At day 12, cumulative total cell expansion folds and CD34+ expansion folds are calculated.
The following experiment is performed to evaluate the effect of replacing feeder layers with SF-UCM or concentrated SF-UCM. The SF-UCM obtained in Example 3 was further concentrated with a 5-10 kDa cut-off membrane (preferably a 5 kDa cut-off membrane) to obtain 10 times concentrated (in volume) conditioned medium. The concentrated conditioned medium was filtered with a 0.22 μm filter, and the filtrate is collected to obtain the desired con. SF-UCM (abbreviated as “c-SF-UCM”). The results of replacing the feeder layers with SF-UCM or con.
In FIG. 4A and 4B, the PC, Sl, and S3-2 groups are the same as described in Example 3. The S3-3 group is as follows: At day 0, CD34+ HSC are thawed and cultured in a culture medium mixture of 5% (v/v) concentrated SF-UCM and 95% (v/v) SCGM containing 6 cytokines, 4 supplements, and hydrocortisone with a cell density of 2.5×10^4 cells/ml for 12 days. The 6 cytokines, hydrocortisone and 4 supplements used herein are the same as described in example 2. The above medium mixture is 50% replenished every 4 days and the cells (including CD34+ cells) are maintained at a cell density of 2.5-10×10^4 cells/ml. At day 12, cumulative total cell expansion folds and CD34+ (ISHAGE) expansion folds are calculated.
At day 0, CD34+ HSC are thawed and cultured in a corresponding culture medium in the following groups: (1) SCGM+SP+UCM group: a culture medium mixture of 5% (v/v) c-SF-UCM and 95% (v/v) SCGM containing 6 cytokines, 4 supplements and hydrocortisone; (2) SCGM+SP group: SCGM containing 6 cytokines, 4 supplements and hydrocortisone; (3) SCGM+UCM group: a culture medium mixture of 5% (v/v) c-SF-UCM and 95% (v/v) SCGM containing 6 cytokines and hydrocortisone; and (4) SCGM group: SCGM containing 6 cytokines and hydrocortisone. The 6 cytokines, hydrocortisone and 4 supplements used herein are the same as described in example 2.
The cells are cultured at a cell density of 2.5×10^4 cells/ml. The above medium mixture is 50-80% replenished every 4 days and the cells (including CD34+ cells) are maintained at a cell density of 2.5-10×10^4 cells/ml. At day 12, cumulative total cell expansion folds and CD34+ (ISHAGE) expansion folds are calculated.
In this experiment, the PC group and S3-3 group is the same as the previous examples. The culture medium is 50% replenished every 4 days, and cells are maintained at a cell density of 2.5-5×10^4 cells/ml. […]
`Cc1c(C)c2c(c(C)c1O)CC[C@@](C)(CCC[C@H](C)CCC[C@H](C)CCCC(C)C)O2` [vitamin E, α-tocopherol]: the “CD34+ (ISHAGE) expansion folds” value was “alone is also sufficient in supporting the expansion” and the “cumulative total cell expansion folds” value is “alone is also sufficient in supporting the expansion”.

For the compound `O=C1O[C@H]([C@@H](O)CO)C(O)=C1O` [vitamin C, L-ascorbic acid], the “CD34+ (ISHAGE) expansion folds” value was “alone can support the expansion” and the “cumulative total cell expansion folds” value was “alone can support the expansion”.

Turning to “transferrin (TF): transferrin, supplement used at 30 μg/ml”, the “CD34+ (ISHAGE) expansion folds” value was “does not further increase the enhancement to any appreciable extent” and the “cumulative total cell expansion folds” value is “does not further increase the enhancement to any appreciable extent”.
